From US9523693B2, “Methods for determining ligand binding to a target protein using a thermal shift assay” (Biotarget Engagement Interest Group AB, priority 2011, dated 2016)

Tests used:
p38α [1] = target: T1, p38α (Homo sapiens, UniProt Q16539); assay: CETSA melting curve in HL-60 cells; format: cell-based; conditions: for apparent Tagg value (average±s.d.): 20 μM compound
T1 construct: host or cells: HL-60
Protocol: HL60 cells were expanded in cell culture medium to about 2 million cells per ml, where approximately 120 million cells were required to determine four melting curves. 15 ml of the 2 million HL60 cells/ml of suspension were added to four separate T75 flasks. […] The same volume of DMSO was added to the remaining flask as a control. The cell suspensions were mixed gently by pipetting. […] The cell suspension was then collected and cells were transferred to 15 ml conical tubes. Cell numbers were counted and cell viability assessed. The conical tubes were then centrifuged at 300 g for 3 minutes at room temperature to pellet the cells and the culture medium was discarded.
Cell pellets were then resuspended with 15 ml PBS and centrifuged for 3 minutes at 300 g at room temperature. 1 ml of PBS supplemented with protease inhibitors was added to each tube and the pellet resuspended. Each cell suspension was distributed into ten different 0.2 ml PCR tubes with 100 μl of cell suspension in each tube, with each of the ten tubes to be heated at a different temperature.
Immediately after hating, the tubes were removed and incubated at room temperature for 3 minutes. The samples were then snap-frozen.
The tubes were vortexed after being thawed and the cell lysates kept on ice after the last thawing. The cell lysates were then centrifuged at 20000 g for 20 minutes at 4° C. to pellet the cell debris. Finally, 90 μl of lysate was then transferred to a new tube for analysis.
Analysis was carried out using the alphascreen format. […] 4 μl of each solution was transferred from the PCR tubes to a separate well of a 384-well ProxiPlate. 5 μl of acceptor beads were added and the plate sealed with a Thermowell plate seal and agitated for 5 minutes at 500 rpm. The plate was then incubated for 2 hours at room temperature. 2 μl of donor beads were then added an the plate sealed and centrifuged at 100 g at room temperature for 10 seconds. The plate was then agitated for 5 minutes at 500 rpm. The plate was incubated at room temperature for at least 2 hours and chemiluminescence read using an Envision plate reader. […]

p38α [2] = target: T1, p38α; assay: Homogeneous AlphaScreen-based CETSA screen in HL-60 cells; format: cell-based; conditions: both screen concentrations, 10 and 50 μM, 50° C. 3 min
Protocol: HL-60 cells were expanded in cell culture medium to a density of approximately 1.5-2 million cells/ml. The cell suspension was collected and the cells transferred to 15 ml conical tubes. The tubes were then centrifuged at 300 g for 3 mins at room temperature and the media was discarded. The cell pellet was resuspended in media to a cell density of about 30 million cells/ml. […] The plates are sealed and stored. The Echo 550 acoustic liquid dispenser was used to place 20 nl of the 10 mM DMSO stock solution in each well of four separate Twin tec PCR plates in columns 1-11. […] The plates were shaken every 10 mins.
The plates were placed in a thermal cycler and heated for 3 mins at 50° C. and were then removed and placed in an aluminium block for 3 mins at room temperature.
140 μl of 1× PerkinElmer lysis buffer was added to all wells and the wells were mixed. 4 μl of the samples were transferred to quadrant one of the 384-well ProxiPlate. This was done for all 96-well plates. […] The chemiluminescence was read with a Envision plate reader and evaluated using data processing software as described previously.
The feasibility of applying the homogeneous assay for screen purposes was assessed by testing the homogeneous assay protocol to determine how this responds to the presence of a small set of test compounds taken from a diversity library. […]

[3] = target: T2, human soluble PIK3C3 protein (Homo sapiens, UniProt Q8NEB9); assay: Thermal shift (lysis/filtration blot) in E. coli cells overexpressing PIK3C3 construct; format: cell-based; conditions: 1 mM Compound 15e or 500 μM Wortmannin, without ligand ca +55°
T2 construct: expressed in transfected cells; host or cells: E. coli
Text: An expression construct of human soluble PIK3C3 protein in an expression vector with N-terminal His-tag was used to investigate a possible increase in melting temperature of the PIK3C3 construct after addition and binding of either of two PIK3C3 specific inhibitors; Wortmannin and Compound 15e. After treatment with or without one of the two inhibitors the cells expressing the PIK3C3 constructs were exposed to a panel of increasing temperatures and after each temperature step the cells expressing the proteins were spotted onto a “lysis/filtration sandwich” soaked in lysis buffer. By using this lysis/filtration step on the “lysis/filtration sandwich” the soluble protein (up to the construct's specific melting temperature) could be detected on a capturing nitrocellulose membrane as dark spots, whereas precipitated protein (i.e., above its specific melting temperature) was not able to pass through the filter membrane and could therefore not be detected. Melting temperatures of constructs treated with Compound 15e or Wortmannin were compared with those of untreated samples. […]

p38α [4] = target: T1, p38α; assay: Isothermal dose-response fingerprint (ITDRF CETSA) in HL-60 cells; format: cell-based; conditions: HL-60 cells heated at 50° C.; western blot and AlphaScreen
Protocol: Thus, in this method, HL-60 cells were expanded in cell culture medium to a cell density of 1-2 million cells/ml using standard cell culture. The cell suspension was collected and transferred to 15 ml conical tubes. The conical tubes were centrifuged at 300 g for 3 minutes at room temperature and the medium discarded. The cell pellet was resuspended in fresh media to provide a cell density of approximately 40 million cells/ml. […] 100 DMSO was placed in columns 2-12. The stock solutions were serially diluted by transferring 50 from columns 1 to 2, mixing and then by continuing this process one column at a time until column 11, where a final 50 is removed and discarded. Column 12 acted as a control. A second plate was prepared as a backup by splitting the serial dilutions into the second plate. All the serially diluted solutions were diluted 50 fold by adding cell culture media. 5 μl of all diluted compound solutions were then transferred to a Twin.tec PCR plate. […] The plate was shaken every 10 minutes.
The PCR plate was then incubated in a thermal cycler (Techne) and heated for 3 minutes at 50° C. The plate was then placed in an aluminium block for 3 minutes to ensure consistent cooling.
Detection was then carried out using the AlphaScreen method. […] The Luminescence was read using an Envision plate reader and data software (e.g. GraphPad Orism) was used to evaluate the luminescence data. […]

wild-type B-raf protein = wild-type B-raf protein (Homo sapiens, UniProt P15056); conditions: K562 lysate
Protocol: (§1) Lysate was prepared from cultured human A375 cells containing the V600E substitution in B-raf and K562, containing the wild type version thereof. Cells were disrupted on ice in hypotonic buffer and with homogenisation. The suspensions were freeze-thawed multiple times and all insoluble aggregates and cell debris were pelleted by centrifugation after completed lysis. The supernatants containing optically clear cytosolic fraction were each aliquoted into two tubes where each tube contained either the ligand SB590885 dissolved in DMSO or pure DMSO for control. The samples were incubated and subsequently aliquoted into 8-tube PCR strips in fractions of 50 microliters. A series of temperatures were applied to the different samples ranging between +44° C. to +62° C. with 2° C. increments and a 3 minute hold at each temperature. Following heating, the samples were cooled and the precipitated protein pelleted by centrifugation. 20 microliter of each supernatant was removed and supplemented with gel loading buffer and fully denatured by heating. The samples were loaded on a separating gel, which after full run time was blotted onto a nitrocellulose membrane. The membrane was washed and blocked with blocking reagent and probed with primary and secondary antibodies. The signal from the bound secondary antibody was detected by chemiluminescense and recorded with a CCD camera. […]

[5] = target: V600E variant B-raf protein (Homo sapiens, UniProt P15056, V600E); conditions: A375 lysate
Protocol: as §1

[6] = target: T3, methionine-aminopeptidase-2 (Bos taurus, UniProt Q3ZC89); assay: Thermal shift in cow liver lysate, Western blot; format: binding
T3 construct: Lysate was prepared for cultured human cells (K562) and cow liver samples; from tissue; host or cells: cow liver
Protocol: (§2) Studies were done on cells from two different systems: a) intact cow liver biopsies incubated with TNP-470 and b) human cultured cells incubated with TNP-470. […] After treatment with or without the inhibitor, the samples were prepared and subjected to an array of increasing temperatures. The precipitated protein fraction was pelleted by means of centrifugation and the supernatant from each temperature step was analysed on gels and by Western blot. Melting temperatures of proteins treated with TNP-470 were compared to those of untreated samples.
(§3) Lysate was prepared for cultured human cells (K562) and cow liver samples by disruption on ice in hypotonic buffer and with homogenisation. The suspensions were freeze-thawed multiple times and all insoluble aggregates and cell debris were pelleted by centrifugation after completed lysis. The lysate of each cell type was divided into two aliquots, where one was supplemented with TNP-470 (dissolved in pure DMSO) and the other with an equivalent volume of pure DMSO. […]
(§4) Next, a series of temperatures were applied to different samples ranging between +56° C. to +88° C. with 2 or 4° C. increments and a 3 minute hold at each step. […] The signal from the bound secondary antibody was detected by chemiluminescense and recorded with a CCD camera. […]

[7] = target: methionine-aminopeptidase-2 (Homo sapiens, UniProt P50579); assay: Thermal shift in human K562 cell lysate, Western blot; format: binding
Protocol: as §2, §3, §4

[8] = target: T4, thymidylate synthase (TS) (Homo sapiens, UniProt P04818); assay: Thermal shift in A549 cell lysate, Western blot, TS; format: binding; conditions: ligand at 10 times the described IC50
T4 construct: Lysate was prepared from cultured human adenocarcinoma cells (A549); endogenous in cells; host or cells: A549
Text: Cells were disrupted on ice in hypotonic buffer and with homogenisation. The suspensions were freeze-thawed multiple times and all insoluble aggregates and cell debris were pelleted by centrifugation after completed lysis.
The signal from the bound secondary antibody was detected by chemiluminescense and recorded with a CCD camera. The intensities were plotted to visualize the changes in melting temperature following ligand treatment.

T1 sequence (Q16539 whole entry): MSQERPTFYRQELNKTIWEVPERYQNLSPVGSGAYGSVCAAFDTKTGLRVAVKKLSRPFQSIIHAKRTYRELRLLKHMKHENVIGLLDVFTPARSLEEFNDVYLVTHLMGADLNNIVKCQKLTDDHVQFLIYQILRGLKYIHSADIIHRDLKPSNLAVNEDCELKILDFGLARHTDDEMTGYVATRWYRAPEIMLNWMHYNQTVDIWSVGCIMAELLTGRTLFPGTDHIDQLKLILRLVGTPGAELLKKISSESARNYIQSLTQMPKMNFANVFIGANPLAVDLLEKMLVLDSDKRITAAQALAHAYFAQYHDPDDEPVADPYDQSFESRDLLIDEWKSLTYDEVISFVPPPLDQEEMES
Sequence of methionine-aminopeptidase-2 (Homo sapiens, UniProt P50579) (P50579 whole entry): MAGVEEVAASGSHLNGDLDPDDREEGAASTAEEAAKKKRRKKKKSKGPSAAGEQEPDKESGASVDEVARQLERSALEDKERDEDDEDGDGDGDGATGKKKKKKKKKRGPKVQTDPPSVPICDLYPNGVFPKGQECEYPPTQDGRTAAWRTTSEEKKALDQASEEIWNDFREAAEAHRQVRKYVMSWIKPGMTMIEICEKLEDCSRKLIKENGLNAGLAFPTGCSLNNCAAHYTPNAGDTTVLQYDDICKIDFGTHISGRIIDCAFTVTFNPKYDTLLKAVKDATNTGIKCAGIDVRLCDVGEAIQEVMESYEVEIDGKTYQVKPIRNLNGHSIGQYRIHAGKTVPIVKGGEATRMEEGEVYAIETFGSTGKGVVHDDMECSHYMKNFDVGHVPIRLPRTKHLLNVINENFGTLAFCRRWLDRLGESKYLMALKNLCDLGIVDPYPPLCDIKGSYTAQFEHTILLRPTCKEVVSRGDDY
T3 sequence (Q3ZC89 whole entry): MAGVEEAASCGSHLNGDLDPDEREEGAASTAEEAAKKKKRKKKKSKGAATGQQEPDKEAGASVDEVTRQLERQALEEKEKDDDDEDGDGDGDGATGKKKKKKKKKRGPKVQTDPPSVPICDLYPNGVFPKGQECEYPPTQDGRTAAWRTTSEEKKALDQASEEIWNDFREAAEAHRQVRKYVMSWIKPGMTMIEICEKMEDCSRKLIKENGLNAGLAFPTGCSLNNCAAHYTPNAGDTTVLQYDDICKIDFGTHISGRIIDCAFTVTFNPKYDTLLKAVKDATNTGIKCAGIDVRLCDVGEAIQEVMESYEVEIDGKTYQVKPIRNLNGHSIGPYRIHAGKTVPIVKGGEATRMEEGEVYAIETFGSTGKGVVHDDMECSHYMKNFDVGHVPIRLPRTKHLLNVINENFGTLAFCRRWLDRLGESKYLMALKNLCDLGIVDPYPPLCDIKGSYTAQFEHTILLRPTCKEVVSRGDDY
Sequence of V600E variant B-raf protein (P15056 whole entry V600E): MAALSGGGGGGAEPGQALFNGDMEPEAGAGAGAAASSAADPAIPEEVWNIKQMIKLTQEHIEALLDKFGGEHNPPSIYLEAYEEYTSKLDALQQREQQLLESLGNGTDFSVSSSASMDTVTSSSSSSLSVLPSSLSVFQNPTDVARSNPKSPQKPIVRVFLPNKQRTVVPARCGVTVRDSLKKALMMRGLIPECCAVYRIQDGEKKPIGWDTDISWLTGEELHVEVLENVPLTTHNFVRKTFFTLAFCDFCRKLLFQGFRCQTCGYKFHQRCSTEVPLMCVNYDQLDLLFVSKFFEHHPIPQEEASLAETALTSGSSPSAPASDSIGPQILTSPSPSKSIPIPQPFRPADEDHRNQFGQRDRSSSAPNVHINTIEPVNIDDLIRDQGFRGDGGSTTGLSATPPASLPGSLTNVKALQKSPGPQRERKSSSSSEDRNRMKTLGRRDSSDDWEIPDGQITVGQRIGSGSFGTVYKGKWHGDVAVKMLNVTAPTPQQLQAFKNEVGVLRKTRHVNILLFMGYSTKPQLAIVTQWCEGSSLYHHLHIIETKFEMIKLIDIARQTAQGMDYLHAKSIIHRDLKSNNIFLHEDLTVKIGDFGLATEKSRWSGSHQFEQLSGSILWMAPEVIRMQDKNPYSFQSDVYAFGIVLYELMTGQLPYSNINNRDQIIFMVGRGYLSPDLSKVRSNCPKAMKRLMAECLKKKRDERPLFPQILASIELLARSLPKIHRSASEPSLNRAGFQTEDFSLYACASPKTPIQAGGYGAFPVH
T2 sequence (Q8NEB9 whole entry): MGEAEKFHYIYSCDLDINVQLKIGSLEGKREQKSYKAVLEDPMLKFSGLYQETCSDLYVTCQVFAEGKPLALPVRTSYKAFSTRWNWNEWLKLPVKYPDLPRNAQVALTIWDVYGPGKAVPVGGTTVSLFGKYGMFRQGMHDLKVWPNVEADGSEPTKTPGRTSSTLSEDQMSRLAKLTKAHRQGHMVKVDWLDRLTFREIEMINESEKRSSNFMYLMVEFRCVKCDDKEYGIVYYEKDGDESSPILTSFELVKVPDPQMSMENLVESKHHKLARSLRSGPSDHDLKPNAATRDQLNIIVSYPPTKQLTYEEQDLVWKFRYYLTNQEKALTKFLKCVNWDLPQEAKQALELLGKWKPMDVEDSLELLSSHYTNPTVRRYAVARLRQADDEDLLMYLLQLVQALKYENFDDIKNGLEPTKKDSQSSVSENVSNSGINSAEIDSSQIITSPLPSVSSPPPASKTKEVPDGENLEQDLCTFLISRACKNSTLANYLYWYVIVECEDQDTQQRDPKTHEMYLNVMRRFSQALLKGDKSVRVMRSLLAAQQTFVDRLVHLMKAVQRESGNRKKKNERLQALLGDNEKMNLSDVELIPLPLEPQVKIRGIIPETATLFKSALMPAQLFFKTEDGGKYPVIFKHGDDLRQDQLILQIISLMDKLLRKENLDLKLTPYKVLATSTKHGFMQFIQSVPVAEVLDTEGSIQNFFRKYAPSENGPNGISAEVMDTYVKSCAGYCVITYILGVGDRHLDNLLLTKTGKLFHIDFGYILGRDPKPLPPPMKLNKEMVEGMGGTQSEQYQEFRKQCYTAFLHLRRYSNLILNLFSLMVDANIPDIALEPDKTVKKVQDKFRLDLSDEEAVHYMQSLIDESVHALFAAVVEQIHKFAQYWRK
Sequence of wild-type B-raf protein (P15056 whole entry): as the sequence (P15056 whole entry V600E) above, with E600V counted along it
T4 sequence (P04818 2-313 limits assumed): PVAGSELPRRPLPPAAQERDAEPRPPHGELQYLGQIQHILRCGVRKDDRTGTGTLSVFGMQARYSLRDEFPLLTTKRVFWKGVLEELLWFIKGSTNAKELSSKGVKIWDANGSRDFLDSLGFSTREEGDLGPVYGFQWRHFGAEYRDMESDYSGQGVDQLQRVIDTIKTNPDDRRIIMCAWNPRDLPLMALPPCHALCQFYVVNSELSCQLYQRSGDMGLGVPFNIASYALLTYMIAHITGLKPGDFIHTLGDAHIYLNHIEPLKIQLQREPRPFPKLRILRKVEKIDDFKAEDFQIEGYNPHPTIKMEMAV

## Cn1c(NC[C@@H](N)Cc2ccccc2)nc(-c2ccncc2)c(-c2ccc3ccccc3c2)c1=O [AMG-548]
p38α [1]; AlphaScreen detection, no inhibitor 46.7±0.7
  apparent Tagg value (average±s.d.): 59.2±0.9 °C
p38α [1]; western blot detection, no inhibitor 48±0.8
  apparent Tagg value (average±s.d.): 60.6±1.0 °C
p38α [2]
  screen outcome (increase of the AlphaScreen signal vs DMSO-only controls): stabilizing hits

## Oc1cccc(-c2nc(N3CCOCC3)c3sccc3n2)c1 [Compound 15e, 3-[4-(4-Morpholinyl)thieno[3,2-d]pyrimidin-2-yl]-phenol]
[3]
  melting temperature after addition of inhibitor: ~58 °C

## Cc1cnc(Nc2ccc(F)cc2Cl)nc1-c1c[nH]c(C(=O)N[C@H](CO)c2cccc(Cl)c2)c1 [ERK 11e]
p38α [1]; 20 μM
  shift of the apparent Tagg (response): lack of a substantial response
p38α [4]
  thermal stabilization of p38α within the tested concentration range: did not result in any stabilization
p38α [2]
  screen outcome (increase of the AlphaScreen signal vs DMSO-only controls): cannot be distinguished from the rest of the inactive compounds

## CN(C)CCOc1ccc(-c2nc(-c3ccncc3)c(-c3ccc4c(c3)CC/C4=N\O)[nH]2)cc1 [SB590885]
wild-type B-raf protein
  increase in the melting temperature: 3 °C
[5]
  increase in the melting temperature: ~6 °C

## CO[C@@H]1[C@H](OC(=O)NC(=O)CCl)CC[C@]2(CO2)[C@H]1[C@@]1(C)O[C@@H]1CC=C(C)C [TNP-470]
[6]
  shift in melting temperature: 14 °
[6]; without ligand 66° C.
  melting temperature after addition of ligand: 80 °C
[7]
  shift in melting temperature: 18 °C
[7]; without ligand 62° C.
  melting temperature after addition of ligand: 80 °C

## Cc1nc2ccc(CN(C)c3ccc(C(=O)N[C@@H](CCC(=O)O)C(=O)O)s3)cc2c(=O)[nH]1 [raltitrexed]
[8]
  change of melting temperature of TS: increased melting temperature
